Reference: PubChem BioAssay (NCI)
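The compound was tested at five concentrations on cells cultured in 96-well plates, with a 48-hour exposure period. GI50 marks 50% less growth. TGI is the concentration that stops growth completely.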

Columns and labels:
Test in all cases: DTP human tumour cell line panel, 48 h
[1] = system: OVCAR-5 ovarian
[2] = system: HOP-92 NSCLC
[3] = system: NCI-H460 lung
[4] = system: PC-3 prostate
[5] = system: NCI-H23 lung
[6] = system: HCC-2998 colon
[7] = system: 786-0 renal
[8] = system: MOLT-4 leukemia

Row | SMILES | TGI [1] [µM] | TGI [2] [µM] | TGI [3] [µM] | TGI [4] [µM] | TGI [5] [µM] | TGI [6] [µM] | TGI [7] [µM] | GI50 [1] [µM] | GI50 [2] [µM] | GI50 [4] [µM] | GI50 [5] [µM] | TGI [8] [µM]
1 | Cc1c(C#N)c2nnn(-c3cccc(Cl)c3)c(=O)n2c1-c1ccccc1 | > 100 | > 100 | > 100 | 9.91 | > 100 | 18.2 | > 100 |  |  |  |  | 
2 | Cc1ccc(S(=O)(=O)OC[C@@]2(C)CC[C@]3(C)CC[C@]4(C)C(=C3C2)C=C[C@@H]2[C@@]3(C)CCCNC(C)(C)[C@@H]3CC[C@]24C)cc1 | 3.21 | 2.97 |  | 2.98 | 3.42 |  |  | 1.77 | 1.45 | 1.53 | 1.82 | 
3 | CCOC(=O)N1c2ccccc2C(C)=CC(C)C1C (stereo unspecified) | > 100 |  | > 100 | > 100 | 60.1 | > 100 | > 100 |  |  |  |  | > 100
4 | Clc1cc(N/N=C(\c2ccccc2)c2ccccn2)ncn1 | > 100 | > 100 | 83.1 | > 100 | > 100 | > 100 |  |  |  |  |  | 3.48
5 | COC(=O)/C=C(C)/C=C\COC1CCCCO1 (stereo unspecified) | > 100 |  | > 100 | > 100 | > 100 | > 100 | > 100 |  |  |  |  | > 100
6 | O=C1NC(N2CCCC(CO)C2)=N/C1=C\c1cccs1 (stereo unspecified) | > 100 | > 100 |  | > 100 | > 100 | > 100 | > 100 |  |  |  |  | > 100
7 | CCOC(=O)[C@@]12C[C@](/C=C/OC)(O[Si](C)(C)C)[C@@]13c1cc(OC)c(OC)cc1CCN3C(=O)C2=O | > 100 | > 100 | > 100 | > 100 | > 100 |  | > 100 |  |  |  |  | > 100
8 | CNC(=O)[C@H](Cc1ccccc1)NC(=O)N(CCC#N)CCN(C(=O)N[C@@H](Cc1ccccc1)C(=O)OC)c1ccccc1 | > 100 | > 100 | > 100 | > 100 | > 100 |  | > 100 |  |  |  |  | > 100
9 | C[N+](C)(CCNc1ccc(NCC[N+](C)(C)Cc2ccc([N+](=O)[O-])cc2)c2c1C(=O)c1c(O)ccc(O)c1C2=O)Cc1ccc([N+](=O)[O-])cc1 | > 50 |  | > 50 | > 50 | > 50 | > 50 | > 50 |  |  |  |  | > 5
10 | CC1(C)N=C(C(N)=O)c2[nH]cnc2N1 | > 100 | > 100 | > 100 | > 100 | > 100 | > 100 | > 100 |  |  |  |  | 
11 | CCOC(=O)c1ccc(N(CCOS(C)(=O)=O)CCOS(C)(=O)=O)cc1 | > 100 | > 100 | > 100 | > 100 | > 100 | > 100 |  |  |  |  |  | 48.1
12 | S=C(NCc1ccccn1)N/N=C/c1ccccn1 | > 100 |  | 2.7 | > 84.9 |  | > 100 | > 86.1 |  |  |  |  | < 0.0357
13 | COc1ccc(-c2nc3ccccc3c(=O)[nH]2)cc1 | > 100 | > 100 |  | > 100 | > 100 |  | > 100 |  |  |  |  | > 100
14 | CC1OC(OC2C(O)CC(OC3C(O)CC(OC4CCC5(C)C(CCC6C5CCC5(C)C(C7=CC(=O)OC7)C(O)CC65O)C4)OC3C)OC2C)CC(O)C1O (stereo unspecified) | 5.62 | 1.85 | 0.532 | 1.59 | 0.313 | 14.6 |  |  |  |  |  | 
